Values of other authors as cited in US20250032494A1, “A COMBINATION TREATMENT FOR CANCER” (My Personal Therapeutics LTD, priority 2021, published 2025).

Legend:
[1] = patients; with and without co-administration of DMARDs
[2] = tested on: tumors with the BRAF V600 mutation; settings: both in vitro and in vivo
[3] = patients; versus cytotoxic active controls dacarbazine or paclitaxel

For `CCOc1cc([C@@H](CS(C)(=O)=O)N2C(=O)c3cccc(NC(C)=O)c3C2=O)ccc1OC` [Apremilast], the improvement over placebo [1] is listed as “statistically significant improvement over placebo”.
For `CC(=O)Nc1cccc(-n2c(=O)n(C3CC3)c(=O)c3c(Nc4ccc(I)cc4F)n(C)c(=O)c(C)c32)c1` [Trametinib], the “cell growth of tumors with the BRAF V600 mutation” value [2] is listed as “inhibits cell growth” and the progression-free survival [3] is listed as “statistically significant increase in progression-free survival”.
